Molecules are shown by their SMILES. The source made the active and inactive calls. The rule behind the calls is not given here.

Our source for the inhibition and IC50 values is ChEMBL document CHEMBL3120150, “Syntheses and structure-activity relationships for some triazolyl p38α MAPK inhibitors” (Bioorg Med Chem Lett, 2014).

In the first assay the test system is HUVEC. As to the kind of experiment: Inhibition of TNFalpha-induced IL-6 gene expression in HUVEC at 10 uM. It is filed as functional, cell-based. Conditions: Homo sapiens.
With `Cn1cnc(-c2ccc(F)cc2)c1-c1ccncc1`, the inhibition result is “Active”.
The same measure, in the same setting: in the case of `Cn1c(-c2cn([C@@H]3[C@@H](O)[C@H](O)[C@@H](CO)O[C@@H]3O)nn2)nc(-c2ccc(F)cc2)c1-c1ccncc1` it was “Active”.
On the same count and under the same terms, in the case of `C[S+]([O-])c1ccc(-c2nc(-c3ccc(F)cc3)c(-c3ccncc3)[nH]2)cc1` (centres undefined) it was “Active”.
The same measure, in the same setting: to `Cn1c(-c2cn([C@H]3CCNC[C@@H]3F)nn2)nc(-c2ccc(F)cc2)c1-c1ccncc1` belongs “Active”.

A further assay has as its system HUVEC. As to the kind of experiment: Inhibition of TNFalpha-induced COX2 gene expression in HUVEC at 10 uM. The class given is functional, cell-based. Conditions: Homo sapiens.
Consider `Cn1cnc(-c2ccc(F)cc2)c1-c1ccncc1`, for which the inhibition entry is “Active”.
On the same count and under the same terms, to `Cn1c(-c2cn([C@@H]3[C@@H](O)[C@H](O)[C@@H](CO)O[C@@H]3O)nn2)nc(-c2ccc(F)cc2)c1-c1ccncc1` belongs “Active”.
`C[S+]([O-])c1ccc(-c2nc(-c3ccc(F)cc3)c(-c3ccncc3)[nH]2)cc1` (centres undefined): the inhibition entry is “Active”.
For `Cn1c(-c2cn([C@H]3CCNC[C@@H]3F)nn2)nc(-c2ccc(F)cc2)c1-c1ccncc1`, the inhibition result is “Active”.

The next assay deals with Mitogen-activated protein kinase 14 (Homo sapiens, UniProt Q16539). As to the kind of experiment: Inhibition of p38a MAPK (unknown origin) by radiometric assay.
Chain of Mitogen-activated protein kinase 14 (Q16539 whole entry): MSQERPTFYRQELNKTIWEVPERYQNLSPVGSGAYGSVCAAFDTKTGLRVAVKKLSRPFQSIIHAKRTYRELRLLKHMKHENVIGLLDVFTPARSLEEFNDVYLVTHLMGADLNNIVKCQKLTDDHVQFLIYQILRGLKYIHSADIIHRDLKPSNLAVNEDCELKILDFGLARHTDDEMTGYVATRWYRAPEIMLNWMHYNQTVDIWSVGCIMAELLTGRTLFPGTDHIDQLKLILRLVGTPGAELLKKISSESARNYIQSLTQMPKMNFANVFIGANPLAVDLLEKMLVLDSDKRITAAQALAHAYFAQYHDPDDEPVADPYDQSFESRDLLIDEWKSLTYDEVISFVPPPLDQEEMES
Conditions: not given
Regarding `CC(=O)OC[C@H]1O[C@H](OC(C)=O)[C@H](n2cc(-c3nc(-c4ccc(F)cc4)c(-c4ccncc4)o3)nn2)[C@@H](OC(C)=O)[C@@H]1OC(C)=O`, the half-inhibitory concentration (IC50) is > 100000 nM.
`Cn1c(-c2cn(CC(=O)O)nn2)nc(-c2ccc(F)cc2)c1-c1ccncc1` [listing 1 of 2 here] came in with a concentration for half-maximal inhibition (IC50) of 740 nM.
For the molecule `Cn1c(-c2cn(CCOP(=O)(O)O)nn2)nc(-c2ccc(F)cc2)c1-c1ccncc1`, the half-maximal inhibitory concentration (IC50) was 250 nM.
In the case of `Cn1c(-c2cn(C(C)(C)C(=O)O)nn2)nc(-c2ccc(F)cc2)c1-c1ccncc1`, 1490 nM corresponded to half-maximal inhibition (IC50). Compared with the last molecule, the IC50 is about 6-fold higher.
Still for that read-out and setting: to `Cn1c(-c2cn(CC(=O)NCCO)nn2)nc(-c2ccc(F)cc2)c1-c1ccncc1` belongs 890 nM.
The same measure, in the same setting: to `CCOC(=O)Cn1cc(-c2nc(-c3ccc(F)cc3)c(-c3ccncc3)n2C)nn1` belongs 1870 nM; to `CCOC(=O)Cn1nncc1-c1nc(-c2ccc(F)cc2)c(-c2ccncc2)n1C`, 56000 nM; to `C[C@H](Nc1nccc(-c2c(-c3ccc(F)cc3)nc3nc(N)ccn23)n1)c1ccccc1`, 6 nM.
Same read-out and setting: in the case of `Cn1c(C#CCO)nc(-c2ccc(F)cc2)c1-c1ccncc1` it was 460 nM.
As to `OCCOCCOCCOCCOCCOCCOCCOCCn1cc(-c2nc(-c3ccc(F)cc3)c(-c3ccncc3)o2)nn1`, half-maximal inhibition (IC50) was put at 23500 nM.
Still for that read-out and setting: to `C[C@@H](C(=O)O)n1cc(-c2nc(-c3ccc(F)cc3)c(-c3ccncc3)n2C)nn1` belongs 1440 nM; to `CN(C)c1ccc(-n2cc(-c3nc(-c4ccc(F)cc4)c(-c4ccncc4)n3C)nn2)cc1`, 1400 nM; to `CN(C)c1ccc(-n2cc(-c3nc(-c4ccc(F)cc4)c(-c4ccncc4)o3)nn2)cc1`, 19500 nM.
Still for that read-out and setting: to `Cn1c(-c2c[nH]nn2)nc(-c2ccc(F)cc2)c1-c1ccncc1` belongs 140 nM.
Still for that read-out and setting: in the case of `Fc1ccc(-c2nc(-c3c[nH]nn3)oc2-c2ccncc2)cc1` it was 380 nM; in that of `O=C(O)Cn1cc(-c2nc(-c3ccc(F)cc3)c(-c3ccncc3)o2)nn1`, 3200 nM; in that of `Cn1c(-c2cn(-c3cccc(C(=O)O)c3)nn2)nc(-c2ccc(F)cc2)c1-c1ccncc1` [listing 1 of 2 here], 185 nM.
On to `C#Cc1nc(-c2ccc(F)cc2)c(-c2ccncc2)n1C`, for which the half-maximal inhibitory concentration (IC50) is 730 nM.
Same read-out and setting: to `COC(=O)c1cccc(-n2cc(-c3nc(-c4ccc(F)cc4)c(-c4ccncc4)n3C)nn2)c1` belongs 990 nM; to `OC[C@H]1O[C@H](O)[C@H](n2cc(-c3nc(-c4ccc(F)cc4)c(-c4ccncc4)o3)nn2)[C@@H](O)[C@@H]1O`, 1190 nM.
The same measure, in the same setting: in the case of `Cn1c(-c2cn(CCOCCOCCOCCO)nn2)nc(-c2ccc(F)cc2)c1-c1ccncc1` it was 11200 nM; in that of `Cn1c(-c2cn(CCOCCOCCOCCOCCOCCOCCOCCO)nn2)nc(-c2ccc(F)cc2)c1-c1ccncc1`, 11600 nM; in that of `Cn1c(-c2cn(-c3ccc(C(=O)O)cc3)nn2)nc(-c2ccc(F)cc2)c1-c1ccncc1`, 140 nM.
The same measure, in the same setting: to `OCCOCCOCCOCCn1cc(-c2nc(-c3ccc(F)cc3)c(-c3ccncc3)o2)nn1` belongs 12500 nM; to `O[C@@H]1[C@@H](O)[C@H](O)O[C@H](Cn2cc(-c3nc(-c4ccc(F)cc4)c(-c4ccncc4)o3)nn2)[C@H]1O`, 5730 nM; to `Cn1c(-c2cn(-c3cccc(C(=O)O)c3)nn2)nc(-c2ccc(F)cc2)c1-c1ccncc1` [listing 2 of 2 here], 91 nM.
`Cn1cnc(-c2ccc(F)cc2)c1-c1ccncc1` returned a half-inhibitory concentration (IC50) of 430 nM.
Same read-out and setting: to `Cn1c(-c2cn(-c3cccc(C(=O)NCCCO)c3)nn2)nc(-c2ccc(F)cc2)c1-c1ccncc1` belongs 290 nM.
The same measure, in the same setting: in the case of `Cn1c(-c2cn([C@@H]3[C@@H](O)[C@H](O)[C@@H](CO)O[C@@H]3O)nn2)nc(-c2ccc(F)cc2)c1-c1ccncc1` it was 710 nM; in that of `Cn1c(-c2cn(CC(=O)N3CCN(CCO)CC3)nn2)nc(-c2ccc(F)cc2)c1-c1ccncc1`, 3800 nM; in that of `CC(=O)OC[C@H]1O[C@H](OC(C)=O)[C@H](n2cc(-c3nc(-c4ccc(F)cc4)c(-c4ccncc4)n3C)nn2)[C@@H](OC(C)=O)[C@@H]1OC(C)=O`, > 100000 nM.
Same read-out and setting: to `Cn1c(-c2cn(C3O[C@H](C(=O)O)[C@@H](O)[C@H](O)[C@H]3O)nn2)nc(-c2ccc(F)cc2)c1-c1ccncc1` (some centres undefined) belongs 590 nM; to `Cn1c(-c2cn(C[C@H]3O[C@@H](O)[C@H](O)[C@@H](O)[C@@H]3O)nn2)nc(-c2ccc(F)cc2)c1-c1ccncc1`, 400 nM.
The molecule `Cn1c(-c2cnnn2CC(=O)O)nc(-c2ccc(F)cc2)c1-c1ccncc1` had a concentration for half-maximal inhibition (IC50) of 4200 nM.
Same read-out and setting: in the case of `C[C@@H](C(=O)O)n1cc(-c2nc(-c3ccc(F)cc3)c(-c3ccncc3)o2)nn1` it was 11400 nM; in that of `Cn1c(-c2cn(CC(=O)O)nn2)nc(-c2ccc(F)cc2)c1-c1ccncc1` [listing 2 of 2 here], 430 nM; in that of `O=C(O)[C@H]1OC(n2cc(-c3nc(-c4ccc(F)cc4)c(-c4ccncc4)o3)nn2)[C@H](O)[C@@H](O)[C@@H]1O` (some centres undefined), 1170 nM.
The same measure, in the same setting: in the case of `O=C(c1ccc(-n2cc(-c3nc(-c4ccc(F)cc4)c(-c4ccncc4)o3)nn2)cc1)N1CCN(CCO)CC1` it was 2400 nM.
For the molecule `Fc1ccc(-c2nc(-c3cn(Cc4ccccc4)nn3)oc2-c2ccncc2)cc1`, the 50% inhibitory concentration (IC50) stood at 158000 nM.
Same read-out and setting: to `Cn1c(-c2cn([C@@H](CC(=O)O)C(=O)O)nn2)nc(-c2ccc(F)cc2)c1-c1ccncc1` belongs 2300 nM; to `C#Cc1nc(-c2ccc(F)cc2)c(-c2ccncc2)o1`, 1790 nM; to `Cn1c(-c2cn(CCP(=O)(O)O)nn2)nc(-c2ccc(F)cc2)c1-c1ccncc1`, 350 nM.
Still for that read-out and setting: in the case of `O=C(O)c1ccc(-n2cc(-c3nc(-c4ccc(F)cc4)c(-c4ccncc4)o3)nn2)cc1` it was 190 nM; in that of `Cn1c(-c2cn(-c3ccccc3O)nn2)nc(-c2ccc(F)cc2)c1-c1ccncc1`, 1590 nM; in that of `Oc1ccccc1-n1cc(-c2nc(-c3ccc(F)cc3)c(-c3ccncc3)o2)nn1`, 2170 nM.
The same measure, in the same setting: in the case of `Cn1c(-c2cn(CCO)nn2)nc(-c2ccc(F)cc2)c1-c1ccncc1` it was 500 nM.
For the molecule `Cn1c(-c2cn(-c3ccccc3C(=O)O)nn2)nc(-c2ccc(F)cc2)c1-c1ccncc1`, half-maximal inhibition (IC50) required 1530 nM.
In the case of `Cn1c(-c2cn(CCOCCOCCOCCN)nn2)nc(-c2ccc(F)cc2)c1-c1ccncc1`, the midpoint of inhibition, the IC50, lay at 5180 nM. Compared with the last molecule, the IC50 is about 3.4-fold higher.
On the same count and under the same terms, in the case of `Cn1c(-c2cn([C@H]3CCNC[C@@H]3F)nn2)nc(-c2ccc(F)cc2)c1-c1ccncc1` it was 96 nM; in that of `CCOP(=O)(CCn1cc(-c2nc(-c3ccc(F)cc3)c(-c3ccncc3)n2C)nn1)OCC`, > 100000 nM; in that of `O=C(O)c1ccccc1-n1cc(-c2nc(-c3ccc(F)cc3)c(-c3ccncc3)o2)nn1`, 6510 nM.

As usually defined, the IC50 is the concentration needed to halve the response being measured. Higher therefore signals weaker potency in that assay.
